{
  "source": "patent US20080293696A1",
  "about": "“2-Aminoarylcarboxamides Useful as Cancer Chemotherapeutic Agents” (Bayer Pharmaceuticals Corporation, priority 2004, published 2008)",
  "data": [
    {"system": "PAKT/PKB (p-(S473) AKT) in H209 small cell lung carcinoma cells stimulated with Stem Cell Factor", "experiment": "PAKT/PKB Cytoblot Assay with H209 cells (SCF-stimulated p-(S473) AKT)", "assay_type": "cell-based", "settings": "Homo sapiens, NCI-H209, compound 1 hour, SCF 25 ng/mL 5 minutes, group: between 500 nM and 1 μM (units in value)", "method_in_brief": "(§1)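 H209 SCLC cells kept overnight in RPMI with 0.1% BSA were pretreated 1 h at 37 °C with compound (0.01–10 μM final), then stimulated with SCF 25 ng/mL for 5 min. After formaldehyde/methanol fixation, p-(S473) AKT was detected in-cell with HRP secondary and ECL chemiluminescence, and IC50 was derived.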", "units": {"IC50": "nM"}, "values": [
      {"smiles": "CCCCN(CCCC)CCCNC(=O)c1cc(CNc2ccccc2C(=O)Nc2ccc3c(c2)OC(F)(F)O3)ccn1", "note": "[Example 105, N-[3-(dibutylamino)propyl]-4-{[(2-{[(2,2-difluoro-1,3-benzodioxol-5-yl)amino]carbonyl}phenyl)amino]methyl}pyridine-2-carboxamide]", "IC50": "500 to 1000"}
    ]},
    {"system": "PAKT/PKB (p-(S473) AKT) in H209 small cell lung carcinoma cells stimulated with Stem Cell Factor", "experiment": "PAKT/PKB Cytoblot Assay with H209 cells (SCF-stimulated p-(S473) AKT)", "assay_type": "cell-based", "settings": "Homo sapiens, NCI-H209, compound 1 hour, SCF 25 ng/mL 5 minutes, group: between 1 and 3 μM", "method_in_brief": "as §1", "units": {"IC50": "nM"}, "values": [
      {"smiles": "CCOc1ccc(CCNC(=O)c2cc(CNc3ccccc3C(=O)Nc3ccc4c(c3)OC(F)(F)O4)ccn2)cc1OC", "note": "[Example 125, 4-{[(2-{[(2,2-difluoro-1,3-benzodioxol-5-yl)amino]carbonyl}phenyl)amino]methyl}-N-[2-(4-ethoxy-3-methoxyphenyl)ethyl]pyridine-2-carboxamide]", "IC50": "1000 to 3000"},
      {"smiles": "O=C(NCCCO)c1cc(CNc2ccccc2C(=O)Nc2ccc3c(c2)OC(F)(F)O3)ccn1", "note": "[Example 93, 4-{[(2-{[(2,2-difluoro-1,3-benzodioxol-5-yl)amino]carbonyl}phenyl)amino]methyl}-N-(3-hydroxypropyl)pyridine-2-carboxamide]", "IC50": "1000 to 3000"},
      {"smiles": "O=C(NCCc1c[nH]c2ccccc12)c1cc(CNc2ccccc2C(=O)Nc2ccc3c(c2)OC(F)(F)O3)ccn1", "note": "[Example 102, 4-{[(2-{[(2,2-difluoro-1,3-benzodioxol-5-yl)amino]carbonyl}phenyl)amino]methyl}-N-[2-(1H-indol-3-yl)ethyl]pyridine-2-carboxamide]", "IC50": "1000 to 3000"}
    ]},
    {"system": "PAKT/PKB (p-(S473) AKT) in H209 small cell lung carcinoma cells stimulated with Stem Cell Factor", "experiment": "PAKT/PKB Cytoblot Assay with H209 cells (SCF-stimulated p-(S473) AKT)", "assay_type": "cell-based", "settings": "Homo sapiens, NCI-H209, compound 1 hour, SCF 25 ng/mL 5 minutes, group: less than 500 nM", "method_in_brief": "as §1", "units": {"IC50": "nM"}, "values": [
      {"smiles": "O=C(Nc1ccc2c(c1)OC(F)(F)C(F)(F)O2)c1ncccc1NCc1ccncc1", "note": "[Example 17, 3-[(Pyridin-4-ylmethyl)amino]-N-(2,2,3,3-tetrafluoro-2,3-dihydro-1,4-benzodioxin-6-yl)pyridine-2-carboxamide]", "IC50": "< 500"},
      {"smiles": "Cc1csc(Nc2cc(CNc3ccccc3C(=O)Nc3ccc4c(c3)OC(F)(F)O4)ccn2)n1", "note": "[Example 176, N-(2,2-difluoro-1,3-benzodioxol-5-yl)-2-[({2-[(4-methyl-1,3-thiazol-2-yl)amino]pyridin-4-yl}methyl)amino]benzamide]", "IC50": "< 500"},
      {"smiles": "Cc1ccc(C(=O)Nc2ccc3c(c2)OC(F)(F)C(F)(F)O3)c(NCc2ccncc2)n1", "note": "[Example 13, 6-methyl-2-[(pyridin-4-ylmethyl)amino]-N-(2,2,3,3-tetrafluoro-2,3-dihydro-1,4-benzodioxin-6-yl)nicotinamide]", "IC50": "< 500"},
      {"smiles": "CN1CCCC1CCNc1cc(CNc2ccccc2C(=O)Nc2ccc3c(c2)OC(F)(F)O3)ccn1", "note": "(stereo not shown) [Example 145, N-(2,2-difluoro-1,3-benzodioxol-5-yl)-2-{[(2-{[2-(1-methylpyrrolidin-2-yl)ethyl]amino}pyridin-4-yl)methyl]amino}benzamidebis(trifluoroacetate)]", "IC50": "< 500"},
      {"smiles": "N#Cc1cc(CNc2ccc(F)cc2C(=O)Nc2ccc3c(c2)OC(F)(F)O3)ccn1", "note": "[Example 30, 2-{[(2-cyanopyridin-4-yl)methyl]amino}-N-(2,2-difluoro-1,3-benzodioxol-5-yl)-5-fluorobenzamide]", "IC50": "< 500"},
      {"smiles": "CCN(CC)CCCNC(=O)c1cc(CNc2ccccc2C(=O)Nc2ccc3c(c2)OC(F)(F)O3)ccn1", "note": "[Example 87, N-[3-(diethylamino)propyl]-4-{[(2-{[(2,2-difluoro-1,3-benzodioxol-5-yl)amino]carbonyl}phenyl)amino]methyl}pyridine-2-carboxamide]", "IC50": "< 500"}
    ]}
  ]
}
